In brackets after ≈: the same amount, converted by molar mass. Blank lines part the entries; values can stand above or below the molecule they belong to.
What was measured:
[1] = tested on: Escherichia coli; assay: Antibacterial activity against Escherichia coli assessed as reduction in bacterial growth incubated for 16 to 20 hrs by Mueller-Hinton broth based two-fold serial dilution method; assay type: functional; details: time 16-20 hrs
[2] = tested on: Streptococcus pyogenes; assay: Antibacterial activity against Streptococcus pyogenes assessed as reduction in microbial growth incubated for 24 hrs by broth micro-dilution method; assay type: functional
[3] = tested on: Klebsiella pneumoniae; assay: Antibacterial activity against Klebsiella pneumoniae assessed as reduction in bacterial growth incubated for 16 to 20 hrs by Mueller-Hinton broth based two-fold serial dilution method; assay type: functional; details: time 16-20 hrs
[4] = tested on: Pseudomonas aeruginosa; assay: Antibacterial activity against Pseudomonas aeruginosa assessed as reduction in bacterial growth incubated for 24 hrs by broth microdilution method; assay type: functional
[5] = tested on: Staphylococcus aureus; assay: Antibacterial activity against Staphylococcus aureus assessed as reduction in bacterial growth incubated for 16 to 20 hrs by Mueller-Hinton broth based two-fold serial dilution method; assay type: functional; details: time 16-20 hrs
[6] = tested on: Escherichia coli; assay: Antibacterial activity against Escherichia coli assessed as zone of inhibition at 20 mg/ml; assay type: functional; details: read-out: IZ
[7] = tested on: Sarcina; assay: Antibacterial activity against Sarcina assessed as zone of inhibition at 20 mg/ml; assay type: functional; details: read-out: IZ
[8] = tested on: Serratia marcescens; assay: Antibacterial activity against Serratia marcescens assessed as zone of inhibition at 20 microg/ml; assay type: functional; details: read-out: IZ
[9] = tested on: Bacillus subtilis; assay: Antibacterial activity against Bacillus subtilis assessed as zone of inhibition at 20 mg/ml; assay type: functional; details: read-out: IZ
[10] = tested on: Staphylococcus aureus; assay: Antibacterial activity against Staphylococcus aureus assessed as zone of inhibition at 20 mg/ml; assay type: functional; details: read-out: IZ
[11] = tested on: Staphylococcus cohnii; assay: Antibacterial activity against Staphylococcus cohnii; assay type: functional
[12] = tested on: Arcanobacterium haemolyticum; assay: Antibacterial activity against Arcanobacterium haemolyticum; assay type: functional
[13] = tested on: Acinetobacter sp.; assay: Antibacterial activity against Acinetobacter sp.; assay type: functional
[14] = tested on: Staphylococcus epidermidis; assay: Antibacterial activity against Staphylococcus epidermidis assessed as reduction in bacterial growth measured after 24 hrs by broth microdilution method; assay type: functional
[15] = tested on: Corynebacterium glutamicum; assay: Antibacterial activity against Corynebacterium glutamicum; assay type: functional
[16] = tested on: Micrococcus luteus; assay: Antibacterial activity against Micrococcus luteus assessed as reduction in microbial growth; assay type: functional
[17] = tested on: Staphylococcus xylosus; assay: Antibacterial activity against Staphylococcus xylosus assessed as reduction in bacterial growth; assay type: functional
[18] = tested on: Micrococcus sp.; assay: Antibacterial activity against Micrococcus sp.; assay type: functional
[19] = tested on: Corynebacterium sp.; assay: Antibacterial activity against Corynebacterium sp.; assay type: functional
[20] = tested on: Micrococcus luteus; assay: Antibacterial activity against Micrococcus luteus assessed as bacterial growth inhibition by paper disc diffusion assay; assay type: functional
[21] = tested on: Alcaligenes faecalis; assay: Antibacterial activity against Alcaligenes faecalis; assay type: functional
[22] = tested on: Staphylococcus haemolyticus; assay: Antibacterial activity against Staphylococcus haemolyticus clinical isolates assessed as bacterial growth inhibition measured after 16 to 24 hrs by broth microdilution assay; assay type: functional; details: time 16-24 hrs
[23] = tested on: Staphylococcus hominis; assay: Antibacterial activity against Staphylococcus hominis; assay type: functional
[24] = tested on: Corynebacterium glutamicum; assay: Antibacterial activity against Corynebacterium glutamicum ATCC 13032 cultured in MHB medium assessed as no bacterial growth incubated at 20 degC for 24 hrs by microdilution susceptibility test; assay type: functional
[25] = tested on: Moraxella catarrhalis; assay: Antibacterial activity against Moraxella catarrhalis assessed as reduction in bacterial growth by broth microdilution method; assay type: functional
[26] = tested on: Corynebacterium xerosis; assay: Antibacterial activity against Corynebacterium xerosis; assay type: functional
[27] = tested on: Staphylococcus epidermidis; assay: Antibacterial activity against Staphylococcus epidermidis assessed as reduction in microbial growth after 24 hrs by CLSI based microdilution method; assay type: functional
[28] = tested on: Pseudomonas aeruginosa; assay: Antibacterial activity against Pseudomonas aeruginosa assessed as reduction in bacterial growth by broth microdilution method; assay type: functional
[29] = tested on: Staphylococcus aureus; assay: Antibacterial activity against Staphylococcus aureus assessed as reduction in microbial growth by CLSI based broth microdilution method; assay type: functional
[30] = tested on: Streptococcus pyogenes; assay: Antibacterial activity against Streptococcus pyogenes assessed as reduction in microbial growth by CLSI based broth microdilution method; assay type: functional
[31] = tested on: Escherichia coli; assay: Antibacterial activity against Escherichia coli assessed as bacterial growth inhibition incubated for 18 hrs by CLSI protocol based Mueller-Hinton broth assay; assay type: functional
[32] = tested on: Escherichia coli; assay: Antibacterial activity against Escherichia coli assessed as inhibition of microbial growth by broth micro-dilution method; assay type: functional
[33] = tested on: Pseudomonas aeruginosa; assay: Antibacterial activity against Pseudomonas aeruginosa assessed as inhibition of microbial growth by broth micro-dilution method; assay type: functional
[34] = tested on: Staphylococcus aureus; assay: Antibacterial activity against Staphylococcus aureus assessed as inhibition of microbial growth by broth micro-dilution method; assay type: functional
[35] = tested on: Streptococcus pyogenes; assay: Antibacterial activity against Streptococcus pyogenes assessed as inhibition of microbial growth by broth micro-dilution method; assay type: functional
[36] = tested on: Staphylococcus aureus; assay: microbe, parasite or virus in culture; details: ATCC 25923, 24 h
Description: Antibacterial activity against Staphylococcus aureus ATCC 25923 assessed as reduction in bacterial growth measured after 24 hrs by Mueller-Hinton broth assay

[37] = tested on: Bacillus subtilis; assay: Antibacterial activity against Bacillus subtilis ATCC 465 assessed as reduction in bacterial growth measured after 24 hrs by Mueller-Hinton broth assay; assay type: functional

Compound: COc1ccc(Nc2c(C#N)c(N)nc3c(/N=N/c4ccc(S(=O)(=O)Nc5ncccn5)cc4)c(=O)[nH]n23)cc1
zone of inhibition at 20000 µg/mL [6]: 15 mm
zone of inhibition at 20000 µg/mL [7]: 15 mm
zone of inhibition at 20 µg/mL [8]: 15 mm
zone of inhibition at 20000 µg/mL [9]: 9 mm
zone of inhibition at 20000 µg/mL [10]: 12 mm

Compound: CN[C@@H]1[C@H](O[C@H]2[C@H](O[C@H]3[C@H](O)[C@@H](O)[C@H](N=C(N)N)[C@@H](O)[C@@H]3N=C(N)N)O[C@@H](C)[C@]2(O)C=O)O[C@@H](CO)[C@H](O)[C@H]1O [STREPTOMYCIN]
zone of inhibition at 20000 µg/mL [6]: 18 mm
zone of inhibition at 20000 µg/mL [7]: 18 mm
zone of inhibition at 20 µg/mL [8]: 18 mm
zone of inhibition at 20000 µg/mL [9]: 18 mm
zone of inhibition at 20000 µg/mL [10]: 18 mm

Compound: Cc1cnc(NS(=O)(=O)c2ccc(/N=N/c3c(=O)[nH]n4c(NN)c(C#N)c(N)nc34)cc2)nc1
zone of inhibition at 20000 µg/mL [6]: 12 mm
zone of inhibition at 20000 µg/mL [7]: 12 mm
zone of inhibition at 20 µg/mL [8]: 15 mm
zone of inhibition at 20000 µg/mL [9]: 9 mm
zone of inhibition at 20000 µg/mL [10]: 9 mm

Compound: N#Cc1nc2[nH]c(=O)[nH]c(=O)c2c(-c2ccccc2)c1N
MIC [36]: 8 µg/mL (≈ 28.6 µM)
MIC [37]: 2 µg/mL (≈ 7.16 µM)

Compound: Cc1ccc(Nc2c(C#N)c(N)nc3c(/N=N/c4ccc(S(=O)(=O)Nc5ncc(C)cn5)cc4)c(=O)[nH]n23)cc1
zone of inhibition at 20000 µg/mL [6]: 12 mm
zone of inhibition at 20000 µg/mL [7]: 15 mm
zone of inhibition at 20 µg/mL [8]: 15 mm
zone of inhibition at 20000 µg/mL [9]: 9 mm
zone of inhibition at 20000 µg/mL [10]: 12 mm

Compound: N#Cc1nc2[nH]c(=O)[nH]c(=O)c2c(-c2c(Cl)cccc2Cl)c1N
MIC [36]: 64 µg/mL (≈ 184 µM)
MIC [37]: 4 µg/mL (≈ 11.5 µM)

Continued, in another order:

MIC [1]: 25 µg/mL (≈ 46.1 µM)
MIC [2]: 12.5 µg/mL
MIC [3]: 25 µg/mL (≈ 46.1 µM)
MIC [4]: 25 µg/mL (≈ 46.1 µM)
MIC [5]: 12.5 µg/mL (≈ 23.1 µM)
Compound: Nc1c(-c2nc3ccccc3s2)c(-c2ccc(Cl)cc2)nc2nc(N/N=C/c3cccc(F)c3)[nH]c(=O)c12

MIC [1]: 12.5 µg/mL (≈ 22 µM)
MIC [2]: 12.5 µg/mL
MIC [3]: 12.5 µg/mL (≈ 22 µM)
MIC [4]: 12.5 µg/mL (≈ 22 µM)
MIC [5]: 12.5 µg/mL (≈ 22 µM)
Compound: Nc1c(-c2nc3ccccc3s2)c(-c2ccc(Cl)cc2)nc2nc(N/N=C/c3cccc([N+](=O)[O-])c3)[nH]c(=O)c12

MIC [11]: 100 µg/mL (≈ 251 µM)
MIC [13]: > 1000 µg/mL
MIC [14]: > 100 µg/mL
MIC [15]: 30 µg/mL (≈ 75.4 µM)
MIC [16]: 20 µg/mL
MIC [17]: 20 µg/mL (≈ 50.2 µM)
MIC [18]: 30 µg/mL (≈ 75.4 µM)
MIC [19]: 100 µg/mL (≈ 251 µM)
MIC [20]: 20 µg/mL (≈ 50.2 µM)
MIC [21]: 1000 µg/mL (≈ 2510 µM)
MIC [23]: 100 µg/mL (≈ 251 µM)
MIC [24]: 30 µg/mL (≈ 75.4 µM)
MIC [25]: 300 µg/mL (≈ 754 µM)
MIC [26]: 20 µg/mL (≈ 50.2 µM)
MIC [27]: 100 µg/mL
Compound: Clc1ccc(C(Cc2ccccc2)c2c(Cl)nc(Cl)nc2Cl)cc1 (stereo unspecified)
MIC [12]: 10 µg/mL (≈ 25.1 µM)
MIC [22]: 100 µg/mL (≈ 251 µM)

MIC [11]: 100 µg/mL (≈ 264 µM)
MIC [13]: > 500 µg/mL
MIC [14]: 100 µg/mL (≈ 264 µM)
MIC [15]: 100 µg/mL (≈ 264 µM)
MIC [16]: 100 µg/mL
MIC [17]: 100 µg/mL (≈ 264 µM)
MIC [18]: 100 µg/mL (≈ 264 µM)
MIC [19]: 100 µg/mL (≈ 264 µM)
MIC [20]: 100 µg/mL (≈ 264 µM)
MIC [21]: > 500 µg/mL
MIC [23]: 100 µg/mL (≈ 264 µM)
MIC [24]: 100 µg/mL (≈ 264 µM)
MIC [25]: 500 µg/mL (≈ 1320 µM)
MIC [26]: 30 µg/mL (≈ 79.2 µM)
MIC [27]: 100 µg/mL
Compound: Nc1nc(Cl)c(C(Cc2ccccc2)c2ccc(Cl)cc2)c(Cl)n1 (stereo unspecified)
MIC [12]: 10 µg/mL (≈ 26.4 µM)
MIC [22]: 100 µg/mL (≈ 264 µM)

MIC [28]: 50 µg/mL (≈ 91.1 µM)
MIC [29]: 100 µg/mL
MIC [30]: 100 µg/mL
MIC [31]: 25 µg/mL (≈ 45.6 µM)
Compound: O=[N+]([O-])c1ccc(Nc2nc(Nc3ccc(S(=O)(=O)Nc4ncccn4)cc3)nc(N3CCCCC3)n2)cc1

MIC [1]: 25 µg/mL (≈ 44.8 µM)
MIC [2]: 25 µg/mL
MIC [3]: 50 µg/mL (≈ 89.5 µM)
MIC [4]: 50 µg/mL (≈ 89.5 µM)
MIC [5]: 25 µg/mL (≈ 44.8 µM)
Compound: Nc1c(-c2nc3ccccc3s2)c(-c2ccc(Cl)cc2)nc2nc(N/N=C/c3cccc(Cl)c3)[nH]c(=O)c12

MIC [32]: 25 µg/mL
MIC [33]: 25 µg/mL
MIC [34]: 50 µg/mL
MIC [35]: 50 µg/mL
Compound: COc1ccc(-c2cc(-c3ccc(Oc4ccccc4)cc3)nc(SCC(=O)Nc3nc4ccc(OC)cc4s3)n2)cc1
